Data on two molecules can be found in paper PMC10056636, “3-Amino-Substituted Analogues of Fusidic Acid as Membrane-Active Antibacterial Compounds” (Membranes, 2023).

Each structure is given as a SMILES string. Converted amounts (≈) assume the structure as drawn. “And” between values parts separate entries of the source, which are not always exact repeats. Equal values may be shown once.

A short description of data set [1]: Measurement of the membrane boundary potential (K+-nonactin conductance). The note with it: 0.1 M KCl, pH 7.4, 50 mV. The procedure:
Measurement of the membrane boundary potential. Virtually solvent-free planar lipid bilayers were made of DPhPC or DPhPG as described above. After the membrane was completely formed and stabilized and its stability was assessed by applying voltages in a range from −200 to 200 mV with a 50 mV step for 5–10 min, stock solutions of nonactin A (7 μg/mL in ethanol) were added to the bathing solution (0.1 M KCl, 5 mM HEPES, pH 7.4) in both chamber compartments to obtain a final concentration ranging from 0.1 to 1 μM.
Test derivatives (4, 20, 22) as 10 mg/mL solutions in ethanol were added to both compartments in a concentration range from 5 µg/mL to Cbr in increments of 25 µg/mL.
The conductance of the bilayers was determined by measuring the membrane conductance (G) at a constant transmembrane voltage of 50 mV. In the subsequent calculations, the membrane conductance was assumed to be related to the membrane boundary potential (φb), the potential drop between the aqueous solution and the membrane hydrophobic core, by the Boltzmann distribution (1) Gm/Gm0=exp(eΔφb/kT) where Gm and Gm^0 are the steady-state membrane conductances induced by K^+-nonactin in the presence and absence of test compounds, respectively; e, k, and T have their usual meanings.
The changes in the membrane boundary potential for the defined experimental conditions were averaged from 4 bilayers and presented as mean ± standard deviation (p ≤ 0.05).

Data set [2] is described as follows: Ion permeability, pore formation and rupture of planar lipid bilayers. To be noted: for formation of ion-permeable pores: DPhPG bilayers; for Cbr (threshold concentration required to rupture the bilayer): 0.1 M KCl, pH 7.4, 100 mV. The procedure:
Synthetic 1,2-diphytanoyl-sn-glycero-3-phosphocholine (DPhPC) and 1,2-diphytanoyl-sn-glycero-3-phospho-(1′-rac-glycerol) (DPhPG) were purchased from Avanti® Polar Lipids (Avanti Polar Lipids, Inc., Alabaster, AL, USA). A KCl solution (0.1 M) was buffered with 5 mM HEPES, pH 7.4. Bilayer lipid membranes were prepared from DPhPC or DPhPG using a monolayer-opposition technique on a 50 µm-diameter aperture in a 10 µm-thick Teflon film separating the cis- and trans-compartments of the Teflon chamber. Experiments were performed in chambers containing 0.1 M KCl, 5 mM Hepes-KOH, pH 7.4.
The test compounds (4, 20, 22) were added to the cis-chamber as 10 mg/mL solutions in ethanol (to mimic the physiologically relevant conditions) up to the final concentrations and the effects of the compounds on the ion permeability of the model lipid membranes were studied. Ag/AgCl electrodes with 1.5% agarose/2 M KCl bridges were used to apply the transmembrane voltage (V) and measure the transmembrane current (I). ‘Positive voltage’ refers to the case in which the cis-side compartment is positive with respect to the trans-side. All experiments were performed at room temperature.
The current was measured using an Axopatch 200B amplifier (Molecular Devices, LLC, Orlean, CA, USA) in voltage clamp mode. Data were digitized using a Digidata 1440A and analyzed using pClamp 10.0 (Molecular Devices, LLC, Orlean, CA, USA) and Origin 8.0 (OriginLab Corporation, Northampton, MA, USA). The data were acquired at a sampling frequency of 5 kHz using low-pass filtering at 200 Hz.
The threshold concentrations (Cbr) of the derivatives required to rupture the bilayers composed of DPhPC or DPhPG at a transmembrane voltage of 100 mV were determined. Cbr-values were averaged from 3 to 4 bilayers and presented as mean ± standard error (p ≤ 0.05).
Pore-forming ability of compound 22 was studied by applying transmembrane voltages in a range of 50–200 mV with 50 mV step and by increasing the derivative concentration in the bilayer bathing solution from 10 to 150 µg/mL.

The nature of data set [3]: Calcein release from liposomes. To be noted: for τ (characteristic time of marker release): 5 μg/mL; for IFmax (maximum release of fluorescent marker from lipid vesicles): 5 μg/mL of test compound. The procedure:
Calcein release from liposomes. Small unilamellar vesicles (Ø100 nm) composed of 1,2-dioleoyl-sn-glycero-3-phosphocholine (DOPC) or 1,2-dioleoyl-sn-glycero-3-phospho-(1′-rac-glycerol) (DOPG) and loaded with the fluorescent dye calcein (35 mM) were obtained using a mini-extruder (Avanti Polar Lipids, Alabaster, AL, USA). At this concentration, calcein fluorescence inside the liposomes is self-quenched. The calcein that was not entrapped in the vesicles was removed by gel filtration with calcein-free solution (150 mM KCl, 10 mM HEPES, pH 7.4). An increase in the free calcein fluorescence in a surrounding medium is a measure of the disturbance of membrane integrity, in the absence and presence of test compounds (4, 20, 22). The control samples were not modified. Experimental samples were treated by 5 µg/mL of the compounds (4, 20, 22). Fluorescence of released calcein was determined on a Fluorat-02-Panorama spectrofluorimeter (Lumex, Saint-Petersburg, Russia) (excitation wavelength of 490 nm, emission wavelength of 520 nm). The detergent Triton X-100 (at a final concentration of 1%) was added at the end of experiments for complete disruption of liposomes (complete release of calcein from the vesicles).
The relative intensity of calcein fluorescence (IF, %) was calculated as:(2) IF=I−I0/Imax/0.9−I0⋅100% where I and I0 are the calcein fluorescence intensities in the presence and absence of test compounds, respectively, and Imax is the maximal fluorescence after treatment of liposomes with Triton X-100 (a factor of 0.9 was introduced to account for sample dilution by Triton X-100).

The subject of data set [4] is Cryptococcus neoformans (ATCC 208821). Nature of the data set: Antifungal growth inhibition (MIC, CO-ADD). To be noted: inhibition ≥70%, two replicates per cell.
Procedure: Antimicrobial, cytotoxicity, and hemolytic activity screening of the synthesized derivatives was carried out in the CO-ADD (The Community for Antimicrobial Drug Discovery) (http://www.co-add.org, accessed on 24 November 2020) and included analysis for antibacterial properties, cytotoxicity, and hemolytic activity.
The hit confirmation test included five bacteria, Escherichia coli (ATCC 25922), Klebsiella pneumoniae (ATCC 700603), Acinetobacter baumannii (ATCC 19606), Pseudomonas aeruginosa (ATCC 27853), and Staphylococcus aureus (ATCC 43300), and two fungi, Candida albicans (ATCC 90028) and Cryptococcus neoformans (ATCC 208821). […] The compounds were also screened for hemolysis of human red blood cells (human whole blood, strain ARCBS 5400 00150).
Samples were prepared in DMSO and water to a final testing concentration of 32 µg/mL or 20 µM (unless otherwise indicated in the data sheet) and serially diluted twofold up to 8 times. Each sample concentration was prepared in 384-well plates: non-binding surface plate (NBS; Corning 3640) for each bacterial/fungal strain, tissue-culture treated (TC-treated; Corning 3712/3764) black for mammalian cell types and polypropylene 384-well plates (PP; Corning 3657) for hemolysis assays. The final DMSO concentration was maintained to a maximum of 0.5%. All sample preparation procedures were performed using liquid-handling robots. All screening was performed as two replica (n = 2), with both replicas on different assay plates, but from single plating and performed in a single screening experiment (microbial incubation). In addition, two values are used as quality controls for individual plates: Z′-Factor [1 − (3* (sd(NegCtrl) + sd(PosCtrl))/(average(PosCtrl)-average(NegCtrl)))] and standard antibiotic controls at different concentrations (>MIC and <MIC).
Fungi strains were cultured for 3 days on yeast extract-peptone dextrose (YPD) agar at 30 °C. A yeast suspension of 1 × 10^6 to 5 × 10^6 CFU/mL (as determined by OD530) was prepared from five colonies. The suspension was subsequently diluted and added to each well containing a test compound, giving a final cell density of fungi suspension of 2.5 × 10^3 CFU/mL and a total volume of 50 µL. All plates were covered and incubated at 35 °C for 36 h without shaking.
The absorbance was measured using a Biotek Multiflo Synergy HTX plate reader. In both cases, the percentage of growth inhibition was calculated for each well, using the negative control (media only) and positive control (fungi without inhibitors) in the same plate. […] In addition, the maximal percentage of growth inhibition is reported as DMax, indicating any compounds with marginal activity.
Fluconazole was used as a positive fungal inhibitor standard for C. albicans and C. neoformans. […] The quality control (QC) of the assays was performed using Z′-factors calculated from the negative (media only) and positive controls (bacterial, fungal, or cell culture without inhibitor) and the standards.

With `COC(=O)/C(CCC=C(C)C)=C1\[C@@H](OC(C)=O)C[C@@]2(C)[C@@H]1C[C@@H](O)[C@@H]1[C@@]3(C)CC[C@H](NCCCNCCCCN)[C@@H](C)C3CC[C@@]12C` (stereo partly drawn) [Compound 20, Methyl (2Z)-2-[(3β,4α,8α,11α,14β,16β)-16-(acetyloxy)-3-({3-[(4aminobutyl)amino]propyl}amino)-11-hydroxy-4,8,10,14-tetramethylgonan-17-ylidene]-6-methylhept-5-enoate], in data set [1] (DPhPC), the “−Δφb(max) (maximum decrease in the membrane boundary potential)” value is given as 29 ± 7 mV. For the same molecule, the “−Δφb(max) (maximum decrease in the membrane boundary potential)” value in data set [1] (DPhPG) was 11 ± 4 mV. Also, in data set [2] (DPhPG), the “concentration up to which ionic permeability of lipid bilayers is not affected” value is at most 200 µg/mL and the “Cbr (threshold concentration required to rupture the bilayer)” value stood at 190 ± 13 µg/mL. Also, the “formation of ion-permeable pores” value in data set [2] is given as “not able to form transient ion-permeable pores”. Further, in data set [3] (DOPC), the “τ (characteristic time of marker release)” value is recorded as 0.5 ± 0.2 min and the “IFmax (maximum release of fluorescent marker from lipid vesicles)” value (“IFmax” for short) is listed as 88 ± 3%. In data set [3] (DOPG), the “τ (characteristic time of marker release)” value is reported as 1.0 ± 0.1 min and the “IFmax” value is given as 87 ± 4%.

Consider `COC(=O)/C(CCC=C(C)C)=C1\[C@@H](OC(C)=O)C[C@@]2(C)[C@@H]1C[C@@H](O)[C@@H]1[C@@]3(C)CC[C@H](NCCCNCCCCNCCCN)[C@@H](C)C3CC[C@@]12C` (stereo partly drawn) [Compound 22, Methyl (2Z)-2-[(3β,4α,8α,11α,14β,16β)-16-(acetyloxy)-3-{[3-({4-[(3-aminopropyl)amino]butyl}amino)propyl]amino}-11-hydroxy-4,8,10,14-tetramethylgonan-17-ylidene]-6-methylhept-5-enoate], for which the “−Δφb(max) (maximum decrease in the membrane boundary potential)” value in data set [1] (DPhPC) worked out at 40 ± 8 mV; in data set [1] (DPhPG) it was 23 ± 8 mV. In addition, the MIC in data set [4] (C. neoformans) is 1.0 µg/mL and 2.0 µg/mL; in data set [4] (Cryptococcus neoformans, ATCC208821, C. neoformans), 1 µg/mL (≈ 1.4 µM). Further, the “concentration from which (up to Cbr) stepwise current fluctuations are produced” value in data set [2] (DPhPG) lay within 35 to 40 µg/mL. The “formation of ion-permeable pores” value in data set [2] is listed as “able to produce stepwise current fluctuations”. Further, in data set [2] (DPhPG), the “Cbr (threshold concentration required to rupture the bilayer)” value turned out to be 135 ± 10 µg/mL. In data set [2] (DPhPG, pores induced by the compound), the “amplitude of the stepwise current fluctuations” value is listed as 20–160 pS. In addition, the “τ (characteristic time of marker release)” value in data set [3] (DOPC) is on record as 0.7 ± 0.2 min; in data set [3] (DOPG), 9.8 ± 0.4 min. For the same molecule, the “IFmax” value is given as 95 ± 2% in data set [3] (DOPC) and 83 ± 3% in data set [3] (DOPG).
